Assay results taken from patent US9889146B2, “Benzoxaborole compounds and uses thereof” (priority 2012, dated 2018).
Values after ≈ are worked out from the molar mass of the structure shown. Values joined by “and” are separate entries in the source; they are usually repeats but may differ in a detail not shown here. Equal values may be shown once. Read-outs that look alike come from different tables or passages of the source.

Columns and labels:
Assay type in all cases: cell-based
P. aeruginosa ATCC 27853 = assay: Spontaneous frequency of resistance; settings: 24 h
Summary of the method: (§1)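 Resistant mutants selected by plating varying inocula on MHBII noble agar with 4× or 10× MIC of GSK2251052, 24 and 48 h at 37 °C; resistance confirmed by regrowth on drug plates. Frequency = resistant colonies ÷ total cells plated, counted from dilutions of overnight culture on LB.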

E. coli ATCC 25922 = assay: Spontaneous frequency of resistance; settings: 10 X MIC, 24 h
Summary of the method: as §1

K. pneumoniae ATCC 13883 = assay: Spontaneous frequency of resistance; settings: 4 X MIC, 24 h
Summary of the method: as §1

[1] = tested on: clinical isolates from the four subjects (E. coli, P. mirabilis, K. pneumoniae); assay: Resistance in clinical isolates of the phase II clinical trial
Experimental: A comparative, dose-ranging study of GSK2251052 vs. imipenem-cilastatin in complicated lower urinary tract infection and pyelonephritis was undertaken with 210 targeted patients (20 actually enrolled) in a phase II clinical trial. The study was designed to determine the appropriate and safe dose for Phase III trials. Doses were 750 mg or 1500 mg twice a day, compared to an active comparator, with an independent safety review committee.
The phase II clinical trial identified four subjects who developed spontaneous resistance to GSK2251052 as evidenced by increased MICs (>32-fold) determined for the clinical isolates from the four subjects. Two of the resistant mutant strains identified were E. coli strains, one was a P. mirabilis strain, and one was a K. pneumoniae strain.

Providencia spp.(all) = assay: microbe, parasite or virus in culture; settings: Providencia spp.(all)
Enterobacteriaceae = assay: organism not typed; settings: Enterobacteriaceae
S. marcescens (AmpC) = assay: microbe, parasite or virus in culture; settings: Serratia marcescens
[2] = tested on: E. coli ATCC 25922 wild type and mutants; assay: MIC in M9 minimal media; settings: Escherichia coli, read-out: MICs in M9 minimal media
Experimental: (§2) Spontaneous Resistance Frequency was determined in vitro for GSK2251052 and the resistance mutants in E. coli ATCC 25922, K. pneumoniae ATCC 13883, and P. aeruginosa ATCC 27853 strains were characterized. GSK2251052 was prepared as described in U.S. Pat. No. 7,816,344 (the entire contents of which are hereby incorporated by reference herein). LB broth, Mueller Hinton II broth (adjusted), and Difco noble agar were obtained from Becton Dickinson (Cockeysville, Md., USA). M9 minimal broth containing 1×M9 salt, 0.5 μg/ML thiamine, 1 mM MgSO4, 0.1 mM CaCl2, 2% glucose, was obtained from Teknova (Hollister, Calif., USA). Antibacterial agents ciprofloxacin, ceftazidime, chloramphenicol, gentamycin, kanamycin, polymixin B, tobramycin and trimethoprim, and amino acids were obtained from Sigma Chemicals (St. Louis, Mo., USA). Strains were obtained from ATCC (Manassas, Va., USA).
(§3) Susceptibility tests were performed following the recommendations for aerobic bacteria (M7-A7) from the Clinical and Laboratories Standards Institute (CLSI).
(§4) The aminoacyl-tRNA synthetase enzyme, LeuRS, ensures the correct amino acid, leucine, is attached to tRNA^Leu. The LeuRS synthetic active site is capable of aminoacylating tRNA^Leu with amino acids structural similar to leucine (norvaline, norleucine, isoleucine and methionine). These mischarged tRNA^Leu are hydrolyzed by the editing domain, thus preventing the deleterious incorporation of incorrect amino acids into the growing polypeptide. The laboratory generated mutants were further tested for their ability to grow in defined media with exogenously added amino acids. Norvaline and norleucine, structurally similar to leucine, were tested in M9 minimal media. […]

[3] = tested on: P. aeruginosa ATCC 27853 wild type and mutants; assay: MIC in M9 minimal media; settings: Pseudomonas aeruginosa, read-out: MICs in M9 minimal media
Experimental: as §2, §3, §4

[4] = tested on: K. pneumoniae ATCC 13883 wild type and mutants; assay: MIC in M9 minimal media; settings: Klebsiella pneumoniae, read-out: MICs in M9 minimal media
Experimental: as §2, §3, §4

Klebsiella spp. (WT) = assay: microbe, parasite or virus in culture; settings: Klebsiella spp. (WT)
[5] = tested on: Enterobacter aerogenes (AmpC); assay: microbe, parasite or virus in culture; settings: Klebsiella aerogenes
[6] = tested on: E. coli ATCC 25922, K. pneumoniae ATCC 13883, and P. aeruginosa ATCC 27853; assay: Spontaneous frequency of resistance, three strains summarised
Experimental: as §2
Selection of resistance to GSK2251052 was attempted by spreading various amounts of bacteria onto MHBII noble agar plates containing 4×MIC (minimum inhibitory concentration) or 10×MIC of GSK2251052. Colonies were counted after 24 hours and 48 hours incubation at 37° C. […] Frequency of resistance was determined by dividing the number of resistant mutants by the total number of cells plated as determined by plating dilutions of the overnight culture on LB plates.

[7] = tested on: Morganella morganii (AmpC); assay: microbe, parasite or virus in culture; settings: Morganella morganii
P. aeruginosa = assay: In vitro activity against P. aeruginosa clinical isolates; settings: for % susceptible: P. aeruginosa, 2,008 clinical isolates, GSK2251052 based on potential susceptible breakpoint of ≦4 μg/mL
Experimental: GSK2251052 was tested for activity against P. aeruginosa, and its activity was compared to other antibiotics of known activity. The results are shown below in Tables 2a and 2b. Of 2,008 clinical isolates tested (from 2009-2010 subjects, of which 40% were from North America) greater than 90% were susceptible to GSK2251052 based on a potential susceptible breakpoint of ≦4 μg/mL.

[8] = GSK2251052 breakpoint, read-out: susceptibility category of MIC90
[9] = read-out: susceptibility category of MIC90
[10] = Pseudomonas aeruginosa, P. aeruginosa clinical isolates

## NC[C@H]1OB(O)c2c(OCCCO)cccc21 [GSK2251052, (S)-3-aminomethyl-7-(3-hydroxy-propoxy)-3h-benzo[c][1,2]oxaborol-1-ol]
P. aeruginosa ATCC 27853; 4 X MIC
  Frequency of Resistance: 1 × 10^−7 and 2 × 10^−7
P. aeruginosa ATCC 27853; 10 X MIC
  Frequency of Resistance: 5 × 10^−8 and 9.6 × 10^−8
E. coli ATCC 25922
  Frequency of Resistance: 8 × 10^−8 and 6 × 10^−8 and 7 × 10^−8
K. pneumoniae ATCC 13883
  Frequency of Resistance: 4 × 10^−8 and 5 × 10^−8 and 8 × 10^−7
[1]; baseline isolates tested
  rates of spontaneous resistance: ~10^−7
[1]; four subjects who developed spontaneous resistance, phase II trial
  increase of MICs in clinical isolates: > 32 fold
Providencia spp.(all); 68 isolates, read-out: MIC90
  MIC90: 1 µg/mL (≈ 4.22 µM)
Providencia spp.(all); [8]
  susceptibility category of MIC90: < 4 µg/mL
Enterobacteriaceae; 2029 isolates, read-out: MIC90
  MIC90: 1 µg/mL (≈ 4.22 µM)
Enterobacteriaceae; [8]
  susceptibility category of MIC90: < 4 µg/mL
S. marcescens (AmpC)
  MIC90: 1 µg/mL (≈ 4.22 µM)
S. marcescens (AmpC); [9]
  MIC90: < 4 µg/mL
[2]; ATCC25922, E 101(leuRS Y246H)
  MIC: 64 µg/mL (≈ 270 µM)
[2]; ATCC25922, E 102(leuRS D345G)
  MIC: > 256 µg/mL
[2]; ATCC25922, E 107(leuRS G229S)
  MIC: 128 µg/mL (≈ 540 µM)
[2]; ATCC25922, E. coli ATCC25922
  MIC: 1 µg/mL (≈ 4.22 µM)
[3]; ATCC27853, P 101 (leuRS T256P)
  MIC: 128 µg/mL (≈ 540 µM)
[3]; ATCC27853, P 106 (leuRS V342M)
  MIC: > 256 µg/mL
[3]; ATCC27853, P 108 (leuRS T252P)
  MIC: > 256 µg/mL
[3]; ATCC27853, P. aeruginosa ATCC27853
  MIC: 4 µg/mL (≈ 16.9 µM)
[4]; ATCC13883, K 104(leuRS D345Y)
  MIC: > 256 µg/mL
[4]; ATCC13883, K 105(leuRS G229R)
  MIC: > 256 µg/mL
[4]; ATCC13883, K 107(leuRS S227F)
  MIC: 32 µg/mL (≈ 135 µM)
[4]; ATCC13883, K 108(leuRS T248P)
  MIC: > 256 µg/mL
[4]; ATCC13883, K 110(leuRS V338L)
  MIC: 64 µg/mL (≈ 270 µM)
[4]; ATCC13883, Klebsiella pneumoniae ATCC13883
  MIC: 2 µg/mL (≈ 8.44 µM)
Klebsiella spp. (WT); 159 isolates, read-out: MIC90
  MIC90: 1 µg/mL (≈ 4.22 µM)
Klebsiella spp. (WT); [8]
  MIC90: < 4 µg/mL
[5]
  MIC90: 1 µg/mL (≈ 4.22 µM)
[5]; [9]
  MIC90: < 4 µg/mL
[6]; measured at 24 h
  frequency of resistance, range: 10^−7 to 10^−8
[6]; three ATCC strains, 24 h and 48 h time points
  frequency of resistance, range: 10^−7 to 10^−8
[7]
  MIC90: 2 µg/mL (≈ 8.44 µM)
[7]; [9]
  MIC90: < 4 µg/mL
P. aeruginosa; P. aeruginosa clinical isolates
  MIC Range: 0.06 to 64 µg/mL
P. aeruginosa
  % susceptible: greater than 90%
P. aeruginosa; listed as GSK2250152
  % susceptible: 92.8%
P. aeruginosa; [10]
  MIC50: 2 µg/mL (≈ 8.44 µM)
  MIC90: 4 µg/mL (≈ 16.9 µM)
